Results published in BindingDB's records for doi:10.7270/Q2B27SQ0 (Nmmlsc, 2008).

Target: Apoptosis regulator Bcl-2 (Homo sapiens, UniProt P10415)
Experiment: PubChem AID 950
[1] = inactive by the depositor's call

Chain of Apoptosis regulator Bcl-2 (P10415 whole entry): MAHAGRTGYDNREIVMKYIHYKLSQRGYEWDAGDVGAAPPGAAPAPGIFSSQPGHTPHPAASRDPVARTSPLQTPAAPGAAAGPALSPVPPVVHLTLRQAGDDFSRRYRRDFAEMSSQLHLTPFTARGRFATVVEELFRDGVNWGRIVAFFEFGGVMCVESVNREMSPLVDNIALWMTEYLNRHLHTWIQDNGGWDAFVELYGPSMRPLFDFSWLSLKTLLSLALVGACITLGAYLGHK

Compound | EC50 [1] [µM] | EC50 [µM]
CNc1ccc(Br)cc(C(=O)/C=C/c2cc(OC)ccc2OC)c1=O [SMR000115626] | 8.97 | –
O=C(NCc1ccccn1)c1ccc2nc(-c3ccco3)c(-c3ccco3)nc2c1 [2,3-di-2-furyl-N-(pyridin-2-ylmethyl)quinoxaline-6-carboxamide] | 14.1 | –
Nc1c(C(=O)NCC2CCCO2)sc2nc3c(c(-c4ccco4)c12)CC/C3=C\c1ccco1 (stereo not drawn) [SMR000259502] | – | 5.26
COc1cc(/C=C2\CC/C(=C\c3cc(OC)c(O)c(OC)c3)C2=O)cc(OC)c1O [(2E,5E)-2,5-bis[(4-hydroxy-3,5-dimethoxyphenyl)methylidene]cyclopentan-1-one] | – | 5.13
CCN1C(=O)/C(=C/C=C2\C=CN(CC)c3ccccc32)SC1=S | 35.3 | –
O=C(NCc1ccccc1)c1ccc2nc(-c3ccco3)c(-c3ccco3)nc2c1 [2,3-bis(furan-2-yl)-N-(phenylmethyl)quinoxaline-6-carboxamide] | – | 7.44
CCN1/C(=C/C(C)=C/c2sc3ccccc3[n+]2CC)Sc2ccccc21 [SMR000354813] | – | 22.4
O=C(NC1=C(NC2CCS(=O)(=O)C2)C(=O)c2ccccc2C1=O)c1ccccc1 (stereo not drawn) [N-[3-[(1,1-dioxo-3-thiolanyl)amino]-1,4-dioxo-2-naphthalenyl]benzamide] | 19.7 | –
c1ccc(-c2nc(N3CCCCCC3)c3ccccc3n2)nc1 [SMR000046752] | 19.8 | –
CN1CCc2cccc3c2[C@@H]1Cc1ccc(O)c(O)c1-3 | – | 16.1
O=C1c2ccccc2-c2onc3ccc(N4CCCC4)c1c23 [SMR000279741] | 27.9 | –
CC(=NNC(=O)c1cc(O)c(O)c(O)c1)c1ccc([N+](=O)[O-])cc1 [SMR000312589] | – | 5.96
CCc1ccc(/C=C/C(=O)c2cc(Br)ccc(=O)c2O)cc1 [5-bromo-3-[(E)-3-(4-ethylphenyl)-1-oxoprop-2-enyl]-2-hydroxy-1-cyclohepta-2,4,6-trienone] | 76.4 | –
O=C(Nc1ccc2nc(-c3ccco3)c(-c3ccco3)nc2c1)NC1CC1 [SMR000118524] | 9.26 | –
C/C(=C\c1ccco1)C1Nc2cccc3cccc(c23)N1 [MLS000055728] | 14.2 | –
Cc1ccc(C(=O)/C=C/c2ccc(-c3ccc(C)cc3)o2)cc1 [1-p-Tolyl-3-(5-p-tolyl-furan-2-yl)-propenone] | 3.08 | –
c1coc(C2=Nc3cccc4cccc(c34)N2)c1 [2-(2-furanyl)-1H-perimidine] | 9.76 | –
COc1cccc2c(SCC(=O)NN=Cc3ccc(O)cc3O)cc(C)nc12 [N'-[(E)-(2-hydroxy-4-oxo-1-cyclohexa-2,5-dienylidene)methyl]-2-[(8-methoxy-2-methyl-4-quinolinyl)thio]acetohydrazide] | – | 24.1
